Measurements taken from patent US4959363A, “Quinolonecarboxamide compounds, their preparation and use as antivirals” (Sterling Drug Inc., priority 1989, dated 1990).

Key:
[1] = In vitro maximum tolerated dose (MTL), Vero cells; format: cell-based, African Green Monkey; conditions: monkey, vero cells, In Vitro
[2] = set-up: species or system albino mice; conditions: mouse

| SMILES | MNTC at 72 h [1] [µg/mL] | In Vivo MTL (Maximum tolerated dose) [2] |
| --- | --- | --- |
| CCn1cc(C(=O)NN)c(=O)c2ccc(-c3ccncc3)cc21 [Example 29, 1-Ethyl-1,4-dihydro-4-oxo-7-(4-pyridinyl)-3-quinolinecarboxylic acid hydrazide] | 50 | 100 |
| CCCCn1cc(C(N)=O)c(=O)c2ccc(-c3ccncc3)cc21 [Example 17, 1-Butyl-1,4-dihydro-4-oxo-7-(4-pyridinyl)-3-quinolinecarboxamide] | 6.2 | 50 |
| CCn1cc(C(N)=O)c(=O)c2ccc(-c3ccccn3)cc21 [Example 20, 1-Ethyl-1,4-dihydro-4-oxo-7-(2-pyridinyl)-3-quinolinecarboxamide] | 25 | 100 |
| CCn1cc(C(N)=O)c(=O)c2ccc(-c3cc(C)no3)cc21 [Example 23d, 1-Ethyl-1,4-dihydro-7-(3-methyl-5-isoxazolyl)-4-oxo-3-quinolinecarboxamide] | > 100 | > 200 |
| NC(=O)c1cn(-c2ccc(C(F)(F)F)cc2)c2cc(-c3ccncc3)ccc2c1=O [Example 35, 1,4-Dihydro-7-(4-pyridinyl)-1-(4-trifluoromethylphenyl)-4-oxo-3-quinolinecarboxamide] | > 100 | 50 |
| CCn1cc(C(=O)NO)c(=O)c2ccc(-c3ccncc3)cc21 [Example 30, 1-Ethyl-1,4-dihydro-N-hydroxy-4-oxo-7-(4-pyridinyl)-3quinolinecarboxamide] | 25 | 100 |
| NC(=O)c1cn(-c2ccc(F)cc2F)c2cc(-c3ccncc3)ccc2c1=O [Example 15, 1-(2,4-Difluorophenyl)-1,4-dihydro-4-oxo-7-(4-pyridinyl)-3-quinolinecarboxamide] | 3.1 | < 25 |
| COc1ccc(-n2cc(C(N)=O)c(=O)c3ccc(-c4ccncc4)cc32)cc1 [Example 8, 1,4-Dihydro-1-(4-methoxyphenyl)-4-oxo-7-(4-pyridinyl)-3quinolinecarboxamide] | > 25 | 50 |
| Cn1cc(C(N)=O)c(=O)c2ccc(-c3ccncc3)cc21 [Example 16, 1,4-Dihydro-1-methyl-4-oxo-7-(4-pyridinyl)-3-quinolinecarboxamide] | > 25 | 25 |
| CCn1cc(C(N)=O)c(=O)c2ccc(-c3ccno3)cc21 [Example 24c, 1-Ethyl-1,4-dihydro-7-(5-isoxazolyl)-4-oxo-3-quinolinecarboxamide] | 12.5 | > 200 |
| NC(=O)c1cn(Cc2ccc(Cl)c(Cl)c2)c2cc(-c3ccncc3)ccc2c1=O [Example 12, 1-(3,4-Dichlorobenzyl)-1,4-dihydro-4-oxo-7-(4-pyridinyl)-3-quinolinecarboxamide] | > 100 | > 100 |
| NC(=O)c1cn(-c2ccc(F)cc2)c2cc(-c3ccccc3)ccc2c1=O [Example 44, 1,4-Dihydro-1-(4-fluorophenyl)-4-oxo-7-phenyl-3-quinolinecarboxamide] | 12.5 | > 200 |
| Cc1cc(-c2ccc3c(=O)c(C(N)=O)cn(-c4ccc(F)cc4)c3c2)on1 [Example 22f] | > 100 | > 200 |
| NC(=O)c1cn(-c2ccc(F)cc2)c2cc(-c3ccncc3)c(F)cc2c1=O [Example 48c] | 6.25 | > 100 |
| CCn1cc(C(N)=O)c(=O)c2ccc(-c3cc(C)nc(C)c3)cc21 [Example 7, 1-Ethyl-1,4-dihydro-4-oxo-7-(2,6-dimethyl-4-pyridinyl)-3quinolinecarboxamide] | 12.5 | 25 |
